In ChEMBL document CHEMBL3832084, “DailyMed|setid=22191eca-c98d-4a07-844e-11edb0f04b8d | DIVIGEL - estradiol gel|Physicians Total Care, Inc”:

Tests used:
Format in all cases: ADME, organism-based
[1] = (§1) Pharmacokinetic parameters for Estradiol on day 14, following multiple daily topical administration of Divigel 0.1 %,at steady state.; parameters: dose 0.5 g, dose 1 g, dose 0.25 g, route topical; conditions: human, in vivo, topical or ocular, dose 0.25 g, dosed compound id 17, dosed compound name ESTRADIOL, regimen Multiple daily dose, sampling time1 Day 14 days, study dosing duration 14 days, tissue Plasma
Homo sapiens = assay: as §1; parameters: dose 0.5 g, dose 1 g, dose 0.25 g, route topical; conditions: in vivo, topical_or_ocular, dosed compound id 17, dosed compound name ESTRADIOL, regimen Multiple daily dose, sampling time1 Day 14 days, study dosing duration 14 days, tissue Plasma
[2] = Apparent terminal half-life of Estradiol evaluated after topical administration of Divigel.; conditions: human, in vivo, topical or ocular, dosed compound id 17, dosed compound name ESTRADIOL, tissue Plasma, read-out: t1/2(app) (converted)

Compound: C[C@]12CC[C@@H]3c4ccc(O)cc4CC[C@H]3[C@@H]1CC[C@@H]2O [ESTRADIOL]
- Tmax [1]: 16 h
- Cavg (Homo sapiens; dose 0.25 g): 0.0098 ng/mL
- Cavg (Homo sapiens; dose 0.5 g): 0.021 ng/mL
- Tmax (Homo sapiens; dose 0.5 g): 10 h
- Cavg (Homo sapiens; dose 1 g): 0.0305 ng/mL
- Tmax (Homo sapiens; dose 1 g): 8 h
- half-life [2]: 10 h
